According to PubChem BioAssay (NCI):
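Compound exposure: 48 hours, 5 concentrations, 96-well plates. The concentration for 50% growth inhibition is given as GI50. TGI is the concentration that stops growth completely.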

system: COLO 205 colon; assay: NCI anticancer screen, dose series, 48 h

**Q.** For `O=C(/C=C/c1c(O)ccc2ccccc12)c1ccc2ccccc2c1`, which TGI is on record?
**A.** Its TGI is greater than 100 µM.

**Q.** With `O=[N+]([O-])c1ccc(-n2nnc(C3=NCCCN3)c2-c2ccc(Cl)cc2)cc1` as the compound, how does the TGI read?
**A.** Its TGI is greater than 100 µM.

**Q.** `COC(=O)C12C3C4C5(C(=O)OC)C(C1C35C(=O)N(C(C)C)C(C)C)C42C(=O)N(C(C)C)C(C)C` (configuration not stated) was tested. Which TGI did it give?
**A.** The TGI was greater than 50 µM.

**Q.** Which TGI does the source give for `N#CC(C#N)=c1[nH]c2cccc3c2-c2c(cccc2c3=C(C#N)C#N)[nH]1` here?
**A.** The TGI was greater than 100 µM.

**Q.** `C#C[C@]1(O)CC[C@H]2[C@@H]3CC=C4c5sc(Nc6ccccc6)nc5CC[C@]4(C)[C@H]3CC[C@@]21C` was tested. Which GI50 did it give?
**A.** The GI50 was 2.18 µM.

**Q.** What about the TGI of the same compound?
**A.** Its TGI is 5.39 µM.

**Q.** Which results are given for `COc1cc(NC(C)CCCN)c2nccc(C)c2c1OC` (configuration not stated)?
**A.** GI50: 3.37 µM; TGI: 11.8 µM

**Q.** Which TGI does the source give for `COC(=O)/C=C/C1C(C(=O)OC)C2(C(=O)OC)CCC1(C(=O)OC)N2` (configuration not stated) here?
**A.** Its TGI is greater than 100 µM.

**Q.** For `CSC1(CC(=O)N(C)C)C(=O)Nc2ccccc21` (configuration not stated), which TGI is on record?
**A.** The TGI was greater than 100 µM.

**Q.** With `N#CC(C(=O)/C(=N/Nc1nc(=S)[nH]n1N)C(C#N)c1ccccc1)c1ccccc1` (configuration not stated) as the compound, how does the TGI read?
**A.** The TGI was greater than 100 µM.

**Q.** For `N#CC(/C(=N/NC(=O)C(=O)NN)C(=O)NC12CC3CC(CC(C3)C1)C2)c1ccccc1` (configuration not stated), which TGI is on record?
**A.** Its TGI is greater than 100 µM.

**Q.** What does the source list for `CC(=O)OCC1OC([S-])C(OC(C)=O)C(OC(C)=O)C1OC(C)=O.CC[PH+](CC)CC.CC[PH+](CC)CC.[Au].[Au]` (configuration not stated)?
**A.** GI50: 0.198 µM; TGI: 0.391 µM

**Q.** With `Cc1cc(C)n(CCNCCn2nc(C)cc2C)n1` as the compound, how does the TGI read?
**A.** The TGI was greater than 100 µM.

**Q.** Which TGI does the source give for `COc1cc2c(cc1OCc1ccccc1)CNCC2` here?
**A.** Its TGI is greater than 100 µM.

**Q.** `O/N=C\c1c(O)ccc2ccccc12` was tested. Which TGI did it give?
**A.** The TGI was greater than 100 µM.

**Q.** For `CCCCCCCCCc1cc(=O)c2c(O)cccc2o1`, which TGI is on record?
**A.** The TGI was greater than 100 µM.

**Q.** How did the TGI turn out when `O=C(C[n+]1ccccc1)NNC(=O)/C(=C/c1ccc2c(c1)OCO2)NC(=O)c1ccccc1` was run?
**A.** Its TGI is greater than 65.5 µM.

**Q.** How did the GI50 turn out when `Cc1c(C2Nc3ccccc3C2C)[nH]c2ccccc12` (configuration not stated) was run?
**A.** Its GI50 is 10.5 µM.

**Q.** What about the TGI of the same compound?
**A.** The TGI was 22.5 µM.

**Q.** How did the TGI turn out when `O=S(O)CCCCSSCc1ccccc1CSSCCCCS(=O)O` was run?
**A.** Its TGI is 31.2 µM.

**Q.** How did the TGI turn out when `Clc1ccc(-c2c(C3=NCCN3)nnn2-c2ccc(Cl)cc2)cc1` was run?
**A.** Its TGI is 25.4 µM.

**Q.** Which TGI does the source give for `CC(C)(C)N1CC2(CCCCC2)C1=O` here?
**A.** The TGI was greater than 100 µM.

**Q.** Which TGI does the source give for `O=C(CCC(=O)Nc1cccc(Cl)c1)CC(=O)c1ccc(Cl)cc1` here?
**A.** Its TGI is greater than 100 µM.

**Q.** How did the GI50 turn out when `O=C(CCCN1CC=C(n2c(=O)[nH]c3ccccc32)CC1)c1ccc(F)cc1` was run?
**A.** The GI50 was 25 µM.

**Q.** What about the TGI of the same compound?
**A.** The TGI was 75.5 µM.

**Q.** With `CC(=O)Oc1ccccc1C(=O)N=C1[Se]CCCN1C(=O)c1ccccc1OC(C)=O` as the compound, how does the GI50 read?
**A.** The GI50 was 3.08 µM.

**Q.** And the TGI?
**A.** The TGI was 10.1 µM.

**Q.** Which results are given for `CCN(CC)CC(C)(C)C(=O)/C=C/c1ccc(Cl)c(Cl)c1`?
**A.** GI50: 1.7 µM; TGI: 3.34 µM

**Q.** How did the GI50 turn out when `NC1CCCC[C@H]1N.N[C@@H]1CCCC[C@@H]1N.O=C(P(=O)([O-])[O-])P(=O)([O-])[O-].[Pt+4].[Pt+4]` was run?
**A.** Its GI50 is greater than 100 µM.

**Q.** And the TGI?
**A.** The TGI was greater than 100 µM.

**Q.** For `O=C(O)Cc1c(O)ccc2ccccc12`, which TGI is on record?
**A.** Its TGI is greater than 100 µM.

**Q.** How did the GI50 turn out when `CN1CCc2c(Sc3ccc(C(=O)NO)cc3)c3ccccc3n2C1` was run?
**A.** Its GI50 is 1.92 µM.

**Q.** What about the TGI of the same compound?
**A.** Its TGI is 4.52 µM.

**Q.** Which TGI does the source give for `O=C(CSc1nnc(-c2ccccc2NC(=O)C(F)(F)F)c(=O)[nH]1)NC(=O)Nc1ccccc1` here?
**A.** Its TGI is greater than 100 µM.

**Q.** Which TGI does the source give for `N#CC1Nc2ccccc2[C@@H](O)C1O` (some centres not stated) here?
**A.** Its TGI is greater than 100 µM.

**Q.** With `CCOC(=O)c1[nH]c(COC(C)=O)c(CCCOC(C)=O)c1CCCOC(C)=O` as the compound, how does the TGI read?
**A.** The TGI was greater than 100 µM.

**Q.** With `COc1ccc(C(=O)C(CO)Oc2ccccc2OC)cc1OC` (configuration not stated) as the compound, how does the TGI read?
**A.** Its TGI is greater than 100 µM.

system: NCI-H226 lung; assay: NCI anticancer screen, dose series, 48 h

**Q.** `COc1ccccc1/C=C/c1cnccn1` was tested. Which TGI did it give?
**A.** Its TGI is greater than 10 µM.

**Q.** With `CC(C)c1ccccc1S(=O)c1ccccc1C(C)(C)O` (configuration not stated) as the compound, how does the TGI read?
**A.** The TGI was 41.8 µM.

**Q.** With `CC(C)(C)C(=O)/C=C/c1ccc(Oc2ccccc2)cc1` as the compound, how does the TGI read?
**A.** The TGI was 36.2 µM.

**Q.** How did the TGI turn out when `CC1=C(C(=O)Nc2c(C)cccc2C)C(c2ccccc2Cl)C(C(=O)Nc2c(C)cccc2C)=C(C)N1` was run?
**A.** Its TGI is greater than 100 µM.

**Q.** `Cc1cn2c(/C=C3/C(=O)Nc4ccccc43)c(-c3ccc(Cl)cc3)nc2s1` was tested. Which GI50 did it give?
**A.** Its GI50 is 7.04 µM.

**Q.** What about the TGI of the same compound?
**A.** The TGI was 21.3 µM.

**Q.** Which TGI does the source give for `O=C1CSC(Cc2nc3ccccc3[nH]2)=N1` here?
**A.** Its TGI is 28.3 µM.

**Q.** `COc1ccccc1NC(=O)C1=C(C)NC(C)=C(C(=O)Nc2ccccc2OC)C1c1ccc([N+](=O)[O-])cc1` was tested. Which TGI did it give?
**A.** Its TGI is greater than 100 µM.

**Q.** How did the TGI turn out when `CCOC(=O)[C@H](CCCNC(=O)OC(C)(C)C)NCc1ccc(OC)c(OC)c1` was run?
**A.** The TGI was greater than 100 µM.

**Q.** For `O=C(/C=C/c1c(O)ccc2ccccc12)c1ccc2ccccc2c1`, which TGI is on record?
**A.** The TGI was greater than 100 µM.

**Q.** Which TGI does the source give for `O=[N+]([O-])c1ccc(-n2nnc(C3=NCCCN3)c2-c2ccc(Cl)cc2)cc1` here?
**A.** Its TGI is greater than 100 µM.

**Q.** `COC(=O)C12C3C4C5(C(=O)OC)C(C1C35C(=O)N(C(C)C)C(C)C)C42C(=O)N(C(C)C)C(C)C` (configuration not stated) was tested. Which TGI did it give?
**A.** Its TGI is greater than 50 µM.
